Measurements from article PMC8896928, “Preparation, Characterization, and Preliminary Imaging Study of [^188Re]Re-Ibandronate as a Novel Theranostic Radiopharmaceutical for Bone Metastasis” (Contrast Media & Molecular Imaging, 2022).
Where two headings read alike, the source gives them in different places.

Assays:
[1] = Biodistribution in normal mice; format: in vivo, Kunming mice
Description: Twenty Kunming mice (originated from Swiss albino mice and introduced into Kunming, China.) were randomly divided into five groups (equal number of males and females). Each group was injected with 3.7 MBq [^188Re]Re-IBA. […] The blood and important tissue and organ samples were collected to measure the radioactivity count by γ counter. Following the time attenuation correction, the percentage injection dose rate per gram of tissue (%ID/g) was calculated at each time point. The result is expressed as mean ± standard deviation ( χ¯ ± s). The in vivo distribution of [^188Re]ReO4^− was studied using the aforementioned method.

patients = conditions: cited from earlier work; for Nephrotoxicity: patients, renal safety
[2] = Swiss mice, cited from earlier work
[3] = Kunming mice, 24 h, cited from earlier work
[4] = 0.9% NaCl, 24 h; cited from earlier work
[5] = patients with bone tumors, P < 0.05

In the case of [O]=[188Re](=[O])(=[O])[O-] [[^188Re]ReO4^−, reference compound], the “%ID/g Blood” value ([1]; 1 h) is reported as 4.648 ± 1.631 %ID/g, the “%ID/g Brain” value ([1]; 1 h) is reported as 0.207 ± 0.044 %ID/g and the “%ID/g Femur” value ([1]; 1 h) is reported as 1.670 ± 0.345 %ID/g. For the same molecule, the “%ID/g Gonad” value ([1]; 1 h) was 1.096 ± 0.007 %ID/g, the “%ID/g Heart” value ([1]; 1 h) was 1.422 ± 0.339 %ID/g and the “%ID/g Kidney” value ([1]; 1 h) was 2.923 ± 0.658 %ID/g. For the same molecule, the “%ID/g Liver” value ([1]; 1 h) was 2.480 ± 0.556 %ID/g, the “%ID/g Lung” value ([1]; 1 h) was 4.458 ± 1.379 %ID/g and the “%ID/g Muscle” value ([1]; 1 h) was 0.775 ± 0.074 %ID/g. For the same molecule, the “%ID/g Small intestine” value ([1]; 1 h) was 1.671 ± 0.448 %ID/g, the “%ID/g Spleen” value ([1]; 1 h) was 2.341 ± 0.973 %ID/g and the “%ID/g Stomach” value ([1]; 1 h) was 22.747 ± 5.67 %ID/g. For the same molecule, the “%ID/g Thyroid gland” value ([1]; 1 h) was 20.247 ± 2.489 %ID/g, the Femur/heart radioactivity ratio ([1]; 1 h) was 1.195 and the Femur/liver radioactivity ratio ([1]; 1 h) was 0.685. The Femur/muscle radioactivity ratio ([1]; 1 h) was 2.193, the “%ID/g Blood” value ([1]; 3 h) was 1.578 ± 0.419 %ID/g and the “%ID/g Brain” value ([1]; 3 h) was 0.070 ± 0.024 %ID/g. The “%ID/g Femur” value ([1]; 3 h) was 0.431 ± 0.038 %ID/g, the “%ID/g Gonad” value ([1]; 3 h) was 0.404 ± 0.130 %ID/g and the “%ID/g Heart” value ([1]; 3 h) was 0.401 ± 0.050 %ID/g. For the same molecule, the “%ID/g Kidney” value ([1]; 3 h) was 0.683 ± 0.118 %ID/g, the “%ID/g Liver” value ([1]; 3 h) was 0.530 ± 0.038 %ID/g and the “%ID/g Lung” value ([1]; 3 h) was 1.026 ± 0.312 %ID/g. For the same molecule, the “%ID/g Muscle” value ([1]; 3 h) was 0.182 ± 0.023 %ID/g, the “%ID/g Small intestine” value ([1]; 3 h) was 0.558 ± 0.207 %ID/g and the “%ID/g Spleen” value ([1]; 3 h) was 0.490 ± 0.090 %ID/g. The “%ID/g Stomach” value ([1]; 3 h) was 8.578 ± 3.928 %ID/g, the “%ID/g Thyroid gland” value ([1]; 3 h) was 10.167 ± 1.618 %ID/g and the Femur/heart radioactivity ratio ([1]; 3 h) was 1.075. For the same molecule, the Femur/liver radioactivity ratio ([1]; 3 h) was 0.813, the Femur/muscle radioactivity ratio ([1]; 3 h) was 2.372 and the “%ID/g Blood” value ([1]; 6 h) was 0.533 ± 0.254 %ID/g. For the same molecule, the “%ID/g Brain” value ([1]; 6 h) was 0.044 ± 0.019 %ID/g, the “%ID/g Femur” value ([1]; 6 h) was 0.213 ± 0.102 %ID/g and the “%ID/g Gonad” value ([1]; 6 h) was 0.207 ± 0.065 %ID/g. The “%ID/g Heart” value ([1]; 6 h) was 0.176 ± 0.074 %ID/g, the “%ID/g Kidney” value ([1]; 6 h) was 0.338 ± 0.191 %ID/g and the “%ID/g Liver” value ([1]; 6 h) was 0.258 ± 0.086 %ID/g. For the same molecule, the “%ID/g Lung” value ([1]; 6 h) was 0.487 ± 0.132 %ID/g, the “%ID/g Muscle” value ([1]; 6 h) was 0.109 ± 0.065 %ID/g and the “%ID/g Small intestine” value ([1]; 6 h) was 0.263 ± 0.050 %ID/g. The “%ID/g Spleen” value ([1]; 6 h) was 0.270 ± 0.098 %ID/g, the “%ID/g Stomach” value ([1]; 6 h) was 2.828 ± 1.287 %ID/g and the “%ID/g Thyroid gland” value ([1]; 6 h) was 4.299 ± 1.015 %ID/g. It also gave a Femur/heart radioactivity ratio ([1]; 6 h) of 1.205, a Femur/liver radioactivity ratio ([1]; 6 h) of 0.823 and a Femur/muscle radioactivity ratio ([1]; 6 h) of 1.950. For the same molecule, the “%ID/g Blood” value ([1]; 24 h) was 0.023 ± 0.009 %ID/g, the “%ID/g Brain” value ([1]; 24 h) was 0.017 ± 0.004 %ID/g and the “%ID/g Femur” value ([1]; 24 h) was 0.031 ± 0.003 %ID/g. The “%ID/g Gonad” value ([1]; 24 h) was 0.021 ± 0.009 %ID/g, the “%ID/g Heart” value ([1]; 24 h) was 0.017 ± 0.005 %ID/g and the “%ID/g Kidney” value ([1]; 24 h) was 0.017 ± 0.003 %ID/g. The “%ID/g Liver” value ([1]; 24 h) was 0.023 ± 0.010 %ID/g, the “%ID/g Lung” value ([1]; 24 h) was 0.054 ± 0.017 %ID/g and the “%ID/g Muscle” value ([1]; 24 h) was 0.021 ± 0.008 %ID/g. For the same molecule, the “%ID/g Small intestine” value ([1]; 24 h) was 0.023 ± 0.004 %ID/g, the “%ID/g Spleen” value ([1]; 24 h) was 0.028 ± 0.007 %ID/g and the “%ID/g Stomach” value ([1]; 24 h) was 0.053 ± 0.032 %ID/g. The “%ID/g Thyroid gland” value ([1]; 24 h) was 0.051 ± 0.026 %ID/g, the Femur/heart radioactivity ratio ([1]; 24 h) was 1.853 and the Femur/liver radioactivity ratio ([1]; 24 h) was 1.325. For the same molecule, the Femur/muscle radioactivity ratio ([1]; 24 h) was 1.498, the “%ID/g Blood” value ([1]; 48 h) was 0.007 ± 0.002 %ID/g and the “%ID/g Brain” value ([1]; 48 h) was 0.013 ± 0.006 %ID/g. For the same molecule, the “%ID/g Femur” value ([1]; 48 h) was 0.011 ± 0.005 %ID/g, the “%ID/g Gonad” value ([1]; 48 h) was 0.007 ± 0.001 %ID/g and the “%ID/g Heart” value ([1]; 48 h) was 0.011 ± 0.004 %ID/g. The “%ID/g Kidney” value ([1]; 48 h) was 0.017 ± 0.007 %ID/g, the “%ID/g Liver” value ([1]; 48 h) was 0.018 ± 0.010 %ID/g and the “%ID/g Lung” value ([1]; 48 h) was 0.036 ± 0.008 %ID/g. The “%ID/g Muscle” value ([1]; 48 h) was 0.020 ± 0.005 %ID/g, the “%ID/g Small intestine” value ([1]; 48 h) was 0.014 ± 0.005 %ID/g and the “%ID/g Spleen” value ([1]; 48 h) was 0.022 ± 0.006 %ID/g. The “%ID/g Stomach” value ([1]; 48 h) was 0.029 ± 0.012 %ID/g, the “%ID/g Thyroid gland” value ([1]; 48 h) was 0.025 ± 0.009 %ID/g and the Femur/heart radioactivity ratio ([1]; 48 h) was 1.060. The Femur/liver radioactivity ratio ([1]; 48 h) was 0.638 and the Femur/muscle radioactivity ratio ([1]; 48 h) was 0.585.
In the case of CCCCCN(C)CCC(O)(P(=O)(O)O)P(=O)(O)O [ibandronic acid, Ibandronic acid], the “Renal function during follow-up” value (patients; 44 patients, average follow-up of 18.5 months) is listed as “no impairment of renal function”, the “Pain relief rate and improvement in the quality of life vs zoledronic acid group” value (patients; [5]) is listed as “higher” and the “Rate of adverse reactions vs zoledronic acid group” value (patients; [5]) is listed as “lower”. The Nephrotoxicity (patients) was “extremely low and equivalent to that of the placebo”.
For O=P(O)(O)C(O)(Cn1ccnc1)P(=O)(O)O [zoledronic acid], the Nephrotoxicity (patients) is listed as “possible occurrence of nephrotoxicity”.
In the case of “[^188Re]Re-bisphosphonate hydroxyethylidene diphosphonate [[^188Re]Re-HEDP]”, the “Bone uptake (maximum)” value ([2]; 4 h) is given as 1.0 ± 0.1 %ID/g, the Bone uptake ([3]; ref 37) is given as 22.36 ± 4.11 %ID/g and the Bone uptake ([3]; ref 38) is given as 11.08 ± 4.25 %ID/g. For the same molecule, the “Stability (RCP)” value [4] was 91.2%.
For [^188Re]Re-pamidronate [[^188Re]Re-PMA], the “Bone uptake (lowest)” value ([2]; 1 h) is given as 0.40 ± 0.05 %ID/g and the “Bone uptake (highest)” value ([2]; 4 h) is given as 0.81 ± 0.25 %ID/g.
